# Test results published in patent US20260248784A1, “BTK Degrader and Use Thereof” (JIANGSU VCARE PHARMATECH CO., LTD., priority 2023, published 2026).
# Assays:
# [1] = test system: REC-1 (BTK C481S) cell xenograft; experiment: Activity test in REC-1 (BTK C481S) cell xenograft model; format: in vivo, BALB/c-Nude mice; conditions: REC-1 (BTK C481S) xenograft; for Tumor weight: Mean ± SEM
# Description: REC-1 (BTK C481S) cell culture (culture conditions: RPMI1640 medium+10% FBS, 37° C., 5% CO2). The cells subcultured into the logarithmic growth phase were collected and transferred into a centrifuge tube, and centrifuged at 1300 rpm for 3 min. On the day of inoculation, the cell density was adjusted to 5*10^7 cells/mL.
# Cell inoculation: The inoculation site was selected at the right shoulder blade of the experimental animal, and the inoculation density was 5*10^6 cells+matrix gel/200 μL/animal.
# Experimental animals: BALB/c-Nude, female, 6-8 W.
# Grouped administration: When the average tumor volume reached 80-120 mm^3, the animals were randomly grouped according to tumor volume, with the coefficient of variation (CV) of tumor volumes not exceeding ⅓ of the mean volume. The day of grouping was defined as D0, and the administration began on the day of grouping. The body weight of the mice was measured before administration, and the administration was based on the body weight on that day.
# Experimental observation and data collection: After cell inoculation, the effect of the tumor on the normal behavior of the animals was routinely monitored every week. Specific contents include the activity, food and water intake, weight gain or loss, eyes, fur and other abnormalities of the experimental animals. After the start of administration, the mice were weighed and dosed daily, and tumor volume was measured twice a week. The tumor volume was calculated as follows: tumor volume (mm^3)=0.52×tumor long diameter (mm)×tumor short diameter (mm)^2. At the end of the experiment, the following indicators were analyzed: tumor growth curve, mouse body weight curve, tumor weight, uniform photography of the excised tumors arranged according to groups, and calculation of tumor volume inhibition rate (TGI).
# TGITV (Relative tumor volume inhibition rate) calculation formula:
# [formula] • Vnt: Tumor volume of the mouse numbered n on day t; • Vn0: Tumor volume of the mouse numbered n on day 0; • RTVn: Relative tumor volume of the mouse numbered n on day t; • mean RTVtreat: RTV mean of the administration group; • mean RTVvehicle: RTV mean of the Vehicle group; • The experimental results such as tumor volume and mouse body weight of each group of animals are expressed as mean±standard error of the mean (Mean±SEM). T test was used for comparison between the two groups. One-way ANOVA was used for comparisons among three or more groups.
# PK test in mice = format: in vivo
# Description: Mice were weighed and dosed, and about 50 μL of whole blood was collected from the orbital venous plexus at 5 min, 0.25 h, 0.5 h, 1 h, 2 h, 4 h, 6 h, 8 h, and 24 h after administration, using EDTA-K2 as anticoagulant. The blood samples were centrifuged at 4000 rpm for 10 min at 4° C., and 20 μL of the supernatant plasma sample was taken into an EP tube and immediately stored in a −80° C. refrigerator until analysis. 10 μL of the plasma sample was transferred to a 96-well plate and 250 μL of acetonitrile (containing internal standard) was added to precipitate proteins. The samples were centrifuged at 4000 rpm/min for 20 min in a 4° C. centrifuge. The supernatant was transferred and injected into LC MS/MS to detect the drug concentration. The data were processed by Thermo LC Quan software, and the standard curve was established using the internal standard method, with the theoretical standard curve concentration as the abscissa and the peak area ratio as the ordinate (test compound peak area/internal standard peak area). Sample concentrations were calculated using the standard curve. The pharmacokinetic parameters were calculated using WinNonlin 8.2 software.
# Mino cell xenograft = experiment: Activity test in Mino cell xenograft model; format: in vivo, NOD SCID mice; conditions: 30 mg/kg
# mino cells = experiment: Activity test in Mino cells (CCK8 proliferation inhibition); format: cell-based; conditions: Homo sapiens, 72 h, 3 days, read-out: Cell inhibition IC50
# Description: Cell culture: mino cells (culture conditions: RPMI1640 medium+15% FBS, 37° C., 5% CO2). Cell plating: The cells subcultured into the logarithmic growth phase were collected and transferred into a centrifuge tube, and centrifuged at 800 rpm for 5 min. The cells were resuspended in complete medium and counted. The cells were diluted and adjusted to a final concentration of 200000 cells/mL. The cells were then seeded into a 96-well plate with 100 μL per well. Cell administration: Each group of drug solutions was added into the 96-well plate, 100 μL per well, n=3 for each drug concentration. Meanwhile, negative wells (n=6) and blank wells (n=3) were set up. The 96-well plate was incubated in the incubator for further 3 days. CCK8 reagent was added to the 96-well plate, 20 μL per well, and then the plate was placed in the incubator for further 4 h. The absorbance of the solution was measured at a wavelength of 450 nm using an enzyme reader. The proliferation inhibition rate was calculated and the half inhibitory concentration IC50 value was calculated.
compound,measurement,setting,value
"COc1ccc(F)cc1C(=O)NCc1ccc(-c2nn(-c3ccc(N4CCN(CC5CCN(c6ccc(N7CCC(=O)NC7=O)c(C)c6)CC5)CC4)nc3)c3ncnc(N)c23)cc1 [Compound I-2, N-(4-(4-amino-1-(6-(4-((1-(4-(2,4-dioxotetrahydropyrimidin-1(2H)-yl)-3-methylphenyl)piperidin-4-yl)methyl)piperazin-1-yl)pyridin-3-yl)-1H-pyrazolo[3,4-d]pyrimidin-3-yl)benzyl)-5-fluoro-2-methoxybenzamide]",T/C (Tweight/Cweight),[1]; 15 mg/kg,11.93%
same,Tumor weight,[1]; 15 mg/kg,0.345 ± 0.082 g
same,T/C (Tweight/Cweight),[1]; 30 mg/kg,12.76%
same,Tumor weight,[1]; 30 mg/kg,0.369 ± 0.043 g
same,Bioavialibility,PK test in mice; PO 20 mg/kg vs IV 5 mg/kg,51.8%
same,AUC(0-inf),"PK test in mice; mouse, IV 5 mg/kg, plasma",44500 ± 4610 ng·h/mL
same,AUC(0-t),"PK test in mice; mouse, IV 5 mg/kg, plasma",42800 ± 5760 ng·h/mL
same,MRT,"PK test in mice; mouse, IV 5 mg/kg, plasma",5.25 ± 0.17 h
same,half-life,"PK test in mice; mouse, IV 5 mg/kg, plasma",5.35 ± 1.61 h
same,AUC(0-inf),"PK test in mice; mouse, PO 20 mg/kg, plasma",92200 ± 33200 ng·h/mL
same,AUC(0-t),"PK test in mice; mouse, PO 20 mg/kg, plasma",83500 ± 22200 ng·h/mL
same,Cmax,"PK test in mice; mouse, PO 20 mg/kg, plasma",8950 ± 339 ng/mL
same,MRT,"PK test in mice; mouse, PO 20 mg/kg, plasma",6.46 ± 1.4 h
same,half-life,"PK test in mice; mouse, PO 20 mg/kg, plasma",6.32 ± 3.49 h
same,TGITV (Relative tumor volume inhibition rate),Mino cell xenograft,80.75%
same,Tumor volume,"Mino cell xenograft; end of experiment, Mean ± SD",955.81 ± 343.68 mm^3
same,IC50,mino cells,14 nM
